Assay results taken from PMC9231138, “Dihydrotanshinone I Enhances Cell Adhesion and Inhibits Cell Migration in Osteosarcoma U−2 OS Cells through CD44 and Chemokine Signaling” (Molecules, 2022).

Columns and labels:
Assay type in all cases: cell-based, human
[1] = system: U−2 OS cells; assay: Cell cycle distribution by flow cytometry; details: 24 h, mean ± SD
Description: The cell cycle is a key regulator of cell survival and the repair signal network. It has direct effects on multiple cell processes, including cell proliferation, DNA repair, apoptosis, and cell migration. Thus, it was further analyzed by flow cytometry. As shown in Table 2 and Figure 5A–E, after treatment with DS−1 at doses of 0, 2.5, 5.0, and 7.5 µM for 24 h, the distribution of the cell cycle was measured and the proportion of the G0/G1 phase was 54.70 ± 2.21%, 61.07 ± 2.04%, 65.20 ± 4.35%, and 65.65 ± 1.83%, respectively. In addition, the proportion of U−2 OS cells at the G0/G1 phase increased with the increase in the DS−1 concentration (Figure 5A–E), implying possible cell cycle arrest at the G0/G1 phase.
Figure 5 DS−1 regulated the cell cycle of U−2 OS cells. (A–D) Cell cycle of U−2 OS cells was retained in the G0/G1 phase. U−2 OS cells were treated with DS−1 at 0, 2.5, 5.0, and 7.5 µM for 24 h, and the cell cycle ratio was measured by flow cytometry; the cell cycle distribution is shown in Table 2. (E) Histogram of cell cycle distribution after U−2 OS cells were treated with DS−1. (F) Heatmap of the expression of genes relating to cell cycle in the transcriptome results. (G–K) In U−2 OS cells treated with DS−1 at concentrations of 0, 2.5, 5.0, and 7.5 μM, RNA was extracted and analyzed by RT-PCR, and the changes in CDK2, cyclin D1, cyclin E1, and p21 mRNA are presented in the histogram. (L) Cyclin D1 and cyclin E1 protein relative expression was analyzed by Western blot. Values are the average of three independent experiments, * p < 0.05, ** p < 0.01, *** p < 0.005. TEXT PRINTED IN THE PICTURE: (A) DS-1: G1(54.88%) (0 μM); S(19.57%) (0 μM); G2(23.84%) (0 μM) | (B) DS-1: G1(60.37%) (2.5 μM); S(18.70%) (2.5 μM); G2(19.44%) (2.5 μM) | (C) DS-1: G1(65.10%) (5.0 μM); S(16.87%) (5.0 μM); G2(16.41%) (5.0 μM) | (D) DS-1: G0G1(65.65%) (7.5 μM); S(14.20%) (7.5 μM); G2M(19.60%) (7.5 μM) DOUBTS OF THE COPYIST ABOUT THIS PICTURE: The label DS-1 is printed only in panel L ("DS-1(μM)"); panels A-D print only the concentration, no substance label / Panel A (0 μM) is the untreated state; its values are given with the 0 μM heading as condition / All gate percentages in panels A-D are printed very small and blurred; 3, 5, 6, 8 and 9 cannot be told apart with certainty / A, G1: 54.88% or 54.89% / 54.68% / A, S: 19.57% or 19.67% / A, G2: 23.84% or 23.64% / B, G1: 60.37% or 60.31% / 80.37% / B, S: 18.70% or 16.70% / B, G2: 19.44% or 18.44% / C, G1: 65.10% or 65.16% / 63.10% / C, S: 16.87% or 16.67% / 18.87% / C, G2: 16.41% or 18.41% / D, G0G1: 65.65% or 65.85% / 66.65% / D, S: 14.20% or 14.26% / D, G2M: 19.60% or 19.80% / 19.66%

[2] = system: CXCL8; assay: RT-PCR CXCL8 mRNA in U−2 OS cells; details: 24 h
Description: Total RNA within cells was extracted by the RNAeasy™ Animal Long RNA Isolation Kit with Spin Column (Shanghai, Beyotime); the concentrations and OD260/OD280 and OD230/OD260 values were measured by NanoDrop. Five micrograms of RNA was used for reverse transcription; each sample was diluted to 16 μL, and 4 μL of synthesized premix solution (5×) was added, then the mixtures were placed in a 42 °C water bath for 10 min, then an 80 °C water bath for 10 min to deactivate reverse transcriptase. After reverse transcription, each sample was diluted to 140 μL. PCR amplification was carried out by the ABI700 real-time PCR system, and the amplification reaction was detected with a SYBR probe. After PCR, actin and GAPDH were used as internal references, and the relative standard curve method (2^−ΔΔcT) determined the relative expression of mRNA.

[3] = system: U−2 OS cells; assay: RNA-seq differential gene expression; details: DS−1 6.25 µM, 24 h
Description: Sample preparation: U−2 OS cells were seeded in a 10 cm culture dish, and we cultured them to the logarithmic growth phase, suctioned the previous medium, and added new medium with DS−1 at 0 and 6.25 μM; each group was repeated two times. After 24 h of culture, the dish was washed with PBS reagent 3 times. One milliliter of TRIzol reagent was added to every dish for cell lysate and then collected in centrifuge tubes.
Transcriptome sequencing and analysis were carried out by Novogene Bioinformatics Technology Co., Ltd. (Beijing, China).
Raw data in the fastq format were firstly processed through in-house Perl scripts. In this step, clean data were obtained by removing reads containing adapter or containing ploy-N and low-quality reads from raw data. […]
Reference genome and gene model annotation files were downloaded from the genome website directly. The index of the reference genome was built using Hisat2 v2.0.5 (https://github.com/DaehwanKimLab/hisat2, accessed on 4 May 2022), and paired-end clean reads were aligned to the reference genome using Hisat2 v2.0.5. FeatureCounts v1.5.0-p3 (https://github.com/byee4/featureCounts, accessed on 4 May 2022) was used to count the reads numbers mapped to each gene. Then the Fragments PerKilobase of transcript sequence per Millions […] (FPKMs) of each gene were calculated based on the length of the gene and reads’ count mapped to this gene. […]

Cc1cccc2c3c(ccc12)C1=C(C(=O)C3=O)[C@@H](C)CO1 [DS−1, 15,16-Dihydrotanshinone I]
proportion of cells in G0/G1 phase ([1]; DS−1 2.5 µM): 61.07 ± 2.04%
proportion of cells in G2/M phase ([1]; DS−1 2.5 µM): 18.65 ± 3.50
proportion of cells in S phase ([1]; DS−1 2.5 µM): 20.10 ± 2.07
proportion of cells in G0/G1 phase ([1]; DS−1 5.0 µM): 65.20 ± 4.35%
proportion of cells in G2/M phase ([1]; DS−1 5.0 µM): 14.92 ± 4.67
proportion of cells in S phase ([1]; DS−1 5.0 µM): 19.55 ± 3.08
proportion of cells in G0/G1 phase ([1]; DS−1 7.5 µM): 65.65 ± 1.83%
proportion of cells in G2/M phase ([1]; DS−1 7.5 µM): 19.60 ± 1.40
proportion of cells in S phase ([1]; DS−1 7.5 µM): 14.20 ± 0.40
CXCL8 mRNA, fold ([2]; DS−1 2.5 µM): 1.49 ± 0.10 fold
CXCL8 mRNA, fold ([2]; DS−1 5.0 µM): 3.34 ± 0.49 fold
CXCL8 mRNA, fold ([2]; DS−1 7.5 µM): 3.71 ± 0.53 fold
number of genes downregulated (of 23,517 detected) [3]: 4643 genes
number of genes upregulated (of 23,517 detected) [3]: 4104 genes
